For series [1], the target named is T1, Nrf2-Keap1 interaction (Homo sapiens, UniProt Q14145).
T1 construct: purchased BPS Bioscience, USA
Nature of the series: Keap1:Nrf2 Inhibitor Screening Assay Kit (Nrf2 activation assay). In kind it is binding. Conditions: fluorescence λex 485 nm, λem 530 nm; 100 µM to 1 nM; read-out: IC50, inhibition of Nrf2-Keap1 interaction. As to the method:
The Nrf2 activation by NQC was determined using ‘Keap1:Nrf2 Inhibitor Screening Assay Kit’ (BPS Bioscience, USA) following the instructions in product insert. The NQC was dissolved in DMSO and diluted with assay buffer provided in the kit to produce the concentrations range, 100 µM to 1 nM. The fluorescence of the solutions in each well of 96-well plate was measured at λex 485 nm and λem 530 nm. The dose–response curve was constructed plotting percent reduction in Kepa1-Nrf2 binding activity versus log concentration of NQC. From dose–response curve IC50 value was calculated.

A short description of series [2]: Microsomal metabolic stability, mouse liver microsomes. In kind it is in vitro ADME. The following applies: NQC 1 µM. As to the method:
(§1) A stock solution (SS) of NQC at 1 mM was prepared using 100% dimethyl sulfoxide. Working solution of 10 μM was further prepared by dilution of SS with 25% ACN and 50 mM tris–HCl buffer (pH 7.4). In a 96-well plate, NQC (effective concentration:1 µM) was incubated with phosphate buffer (pH7.4) and 0.5 mg/mL of liver microsomes (human, rat and mouse) at 37 °C in an incubation. Each NQC incubation with liver microsomes was performed in triplicates. The microsomal metabolic reaction was initiated by the addition of co-factor, NADPH (5 mM). Samples following the allotted time-point was drawn and quenched into a solution of acetonitrile containing 50 ng/mL internal standard. The sample was analysed by a developed HPLC method that has been validated for lower limit of quantification, linearity, precision, selectivity and accuracy according to FDA guidance.
(§2) Half-life of NQC was calculated using the equation: T1/2=0.693/K.
(§3) The in vitro microsomal intrinsic clearance (CLint) was calculated based on the equation below: Clint=0.693/invitrot(1/2)×mlincubation/mgmicrosome×52.5mgmicrosome/gliver×[…].
In general terms: Liver microsomes are vesicles of endoplasmic reticulum, rich in cytochrome P450 enzymes.

Series [3] is described as follows: Microsomal metabolic stability, human liver microsomes. Format: in vitro ADME. Conditions: NQC 1 µM. On the procedure: as §1, §2, §3
The subject of series [4] is RAW 264.7 cells. Kind of series: IL-6 production, ELISA, LPSEc stimulated cells. Format: cell-based. The following applies: Mus musculus, RAW264.7, LPSEc (1 µg/mL) stimulated RAW 264.7 cells. On the procedure:
(§4) Murine macrophages, cell line: RAW 264.7 was procured from ATCC, USA. The macrophage cells were grown and cultured in Dulbecco’s Modified Eagle Medium (DMEM) supplemented with 10% Fetal Bovine serum (FBS) and 1% PenStrep and incubated in a 5% CO2 at 37 °C incubator. Cells from passages 10 to 20 were used for subsequent experiments.
(§5) Production of IL-1β, IL-6, PGE2− and TNF-α in RAW 264.7 cells were quantitatively measured using an enzyme-linked immunosorbent assay (ELISA). The cells were incubated with 0.1% DMSO or NQC for 4 h, then stimulated with LPSEc, 1 µg/mL, for 20 h. The production of pro-inflammatory cytokines (IL-1β, IL-6) and TNF-α were determined using commercial ELISA kit (RayBio) according to the manufacturer’s instructions in product insert. The absorbance was measured at 540 nm. All the experiments were performed in triplicate.

In series [5] the test system is RAW 264.7 cells. Nature of the series: PGE2 production, ELISA, LPSEc stimulated cells. In kind it is cell-based. Conditions: Mus musculus, RAW264.7, LPSEc (1 µg/mL) stimulated RAW 264.7 cells. On the procedure: as §4, §5
In general terms: An ELISA detects its analyte on a solid surface through an enzyme-linked reagent.

Series [6] has as its system RAW 264.7 cells. Kind of series: IL-1β production, ELISA, LPSEc stimulated cells. Format: cell-based. The following applies: Mus musculus, RAW264.7, LPSEc (1 µg/mL) stimulated RAW 264.7 cells. On the procedure:
as §4, §5

For series [7], the system named is RAW 264.7 cells. Nature of the series: Nitric oxide (nitrite) production, Griess reagent, LPSEc stimulated cells. The following applies: Mus musculus, RAW264.7; LPSEc (1 µg/mL) stimulated RAW 264.7 cells; 4 h pretreatment, 20 h LPS; read-out: IC50, NO production. Format: cell-based. As to the method: as §4
RAW 264.7 cells were seeded in a 96-well microplate at 3 × 10^5 cells/well with complete media. The cells were allowed grow and adhere for 24 h. The cells were treated with NQC (50, 25, 12.5, 6.25 and 3.125 µM) and negative control (0.1% v/v DMSO in water) for 4 h prior to LPSEc (1 µg/mL) and allowed to incubate for 20 h at 37 °C, 5% CO2 incubator. Nitrite exist as a stable metabolite of nitric oxide, thus nitrite present in the supernatant was quantitatively measured as a chemical marker of nitric oxide (NO) production using Griess reagent (Promega, USA; 0.1% naphthylethylenediamine dihydrochloride and 1% sulfanilamide in 2.5% phosphoric acid). This assay was carried out following the manufacturer’s protocol where 100 µL of cell supernatant sample was incubated with 100 µL of Griess reagent at room temperature for 10 min and the absorbance at 540 nm was measured using Molecular Devices Spectramax M3 Multi-Mode microplate reader. […]

The subject of series [8] is RAW 264.7 cells. Nature of the series: TNF-α production, ELISA, LPSEc stimulated cells. Format: cell-based. Conditions: Mus musculus, RAW264.7, LPSEc (1 µg/mL) stimulated RAW 264.7 cells. On the procedure: as §4, §5
The test system of series [9] is RAW 264.7 cells. Nature of the series: MTT cell viability assay. Conditions: for cytotoxic effects on RAW 264.7 cells (MTT): LPSEc stimulated. In kind it is cell-based, mouse. As to the method:
as §4
A calorimetric agent (3-(4,5-Dimethylthiazol-2-yl)-2,5-Diphenyltetrazolium Bromide) (MTT) was used to as an assay to determine cell viability after being exposed to NQC. RAW 264.7 cells were seeded in a 96-well microplate at 3 × 10^5 cells/well and were allowed to grow and adhere for 24 h in a 37 °C, 5% CO2 incubator. NQC was dissolved in DMSO and diluted with PBS to produce the required test concentrations (100, 50, 25, 12.5, 6.25 and 3.125 µM). The negative control is 0.1% (v/v) DMSO, which is the maximum effective concentration of DMSO in a well. The cells were treated with either NQC or 0.1% (v/v) DMSO for 4 h followed by 1 µg/mL LPSEc and incubated further for 20 h. MTT solution was added at 100 µL per well under dark condition and the cells were incubated further for 4 h. Upon completion of incubation, the contents in all wells were aspirated and DMSO was added at 100 µL per well. The absorbance was measured at 570 nm using Molecular Devices Spectramax M3 Multi-Mode microplate reader; Sunnyvale, CA, USA. The cells without any treatment was used as a control. MTT assay was performed in triplicate. The percent cell viability is calculated using the following equation: PercentCellViabilty=AbsorbanceofVehicleorTD-1treatedgroupwell/AbsorbanceofControlwell×100.
In general terms: Tetrazolium dyes change colour on reduction, which living cells bring about.

Series [10] in a line: Microsomal metabolic stability, rat liver microsomes. Format: in vitro ADME. Conditions: NQC 1 µM. On the procedure:
as §1, §2, §3

T1 sequence (Q14145 whole entry): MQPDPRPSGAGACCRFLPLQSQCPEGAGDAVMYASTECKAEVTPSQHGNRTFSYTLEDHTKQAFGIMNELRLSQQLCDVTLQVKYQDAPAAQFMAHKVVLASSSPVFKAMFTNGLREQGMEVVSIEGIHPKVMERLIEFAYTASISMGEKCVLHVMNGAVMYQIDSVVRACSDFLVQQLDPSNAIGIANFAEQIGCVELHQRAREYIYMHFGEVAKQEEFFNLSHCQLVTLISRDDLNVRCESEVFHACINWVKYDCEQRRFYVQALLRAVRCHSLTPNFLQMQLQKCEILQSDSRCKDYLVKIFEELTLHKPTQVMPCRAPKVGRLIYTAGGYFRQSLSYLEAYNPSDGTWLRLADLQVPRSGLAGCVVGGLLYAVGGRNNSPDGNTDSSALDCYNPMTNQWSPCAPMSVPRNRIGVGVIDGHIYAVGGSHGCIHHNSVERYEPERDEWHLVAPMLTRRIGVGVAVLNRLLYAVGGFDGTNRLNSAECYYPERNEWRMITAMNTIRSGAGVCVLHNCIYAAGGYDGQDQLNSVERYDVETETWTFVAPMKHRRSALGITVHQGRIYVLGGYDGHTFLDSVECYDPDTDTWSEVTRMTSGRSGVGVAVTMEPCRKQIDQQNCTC

Consider `O=C(NNC(=O)c1cnc2ccccc2n1)c1cccnc1` [NQC, N′-(Pyridine-3-carbonyl)quinoxaline-2-carbohydrazide], for which the half-maximal inhibitory concentration (IC50) in [1] worked out at 4.21 ± 0.89 µM; in series [4], 10.1 ± 0.58 µM; in [5], 15.2 ± 0.91 µM; in [6], 13.3 ± 2.37 µM; in series [7] it was 26.1 ± 1.17 µM; in [8], 14.4 ± 1.83 µM. Also, the Rate of metabolism stood at 0.028 min⁻¹ in series [2] (mouse liver microsomes), 0.011 min⁻¹ in series [3] (human liver microsomes) and 0.013 min⁻¹ in series [10] (rat liver microsomes). In addition, the results for the microsomal intrinsic clearance (CLint) in series [2] (mouse liver microsomes), in [3] (human liver microsomes) and in series [10] (rat liver microsomes) were 2.96 ± 0.34 mL/min/g liver, 1.14 ± 0.31 mL/min/g liver and 1.39 ± 0.87 mL/min/g liver, respectively. The “mCint (microsomal intrinsic clearance)” value in series [2] (mouse liver microsomes, Table 1) was 2.96 ± 0.34 mL/min/g liver; in series [3] (human liver microsomes, Table 1) it was 1.14 ± 0.31 mL/min/g liver; in series [10] (rat liver microsomes, Table 1), 1.39 ± 0.87 mL/min/g liver. Moreover, the half-life at 1 µM in series [2] (pH 7.4, mouse liver microsomes 0.5 mg/mL, NADPH, 37 °C) was determined as 24.6 ± 1.13 min; in [3] (pH 7.4, human liver microsomes 0.5 mg/mL, NADPH, 37 °C), 63.3 ± 1.73 min; in series [10] (rat, liver microsomes, pH 7.4, rat liver microsomes 0.5 mg/mL, NADPH, 37 °C) it was 52.3 ± 0.81 min. The “cytotoxic effects on RAW 264.7 cells (MTT)” value in series [9] (100 µM, P < 0.05) was “significant toxicity”; in series [9] (3.125–50 µM, P > 0.05), “do not show cytotoxic effects”. Also, the “toxicity on RAW 264.7 cells” value in series [9] (dose of 50 µM) is “non-toxic”. Further, in series [10] (rat liver microsomes 0.5 mg/mL, NADPH, 37 °C), the T1/2 came to 52.23 ± 0.81 min.

Broadly, the IC50 is the point on the concentration scale where inhibition reaches its midpoint. Broadly, the half-life is the time in which the quantity being followed falls by half. A high value points to slow loss.

(Values after article PMC6760105, “Construction of a novel quinoxaline as a new class of Nrf2 activator” (BMC Chemistry, 2019).)
